One data set has as its system Vespa mandarinia worker. As to the kind of experiment: Spray on Vespa mandarinia worker collecting sawthorn oak sap. It is filed as in vivo, Vespa mandarinia japonica Radoszkowski. The following applies: 10 workers; for behavior of workers after spraying: immediately started flapping, same time or a few seconds later; for Number of worker Effective / Number of worker No response: sprayed one time, observed up to 1 minute. How it is done:
The experiment was conducted on a Vespa mandarinia japonica Radoszkowski worker which flew to a sawthorn oak tree bleeding sap and which collected the sap in Kagawa Prefecture Kinbuchi Forest Park in Takamatsu City Kagawa Prefecture from June to October, 2014 and from June to July, 2015.
Specifically, 100 mL of distilled water was enclosed in a plastic sprayer having a volume of 200 mL to be used as a control sprayer, and 100 mL of benzyl alcohol was enclosed in the same material and the same volume sprayer to be used as a test liquid sprayer. First, distilled water was sprayed one time to one Vespa mandarinia worker which was collecting sap at a sap bleeding part of a trunk of a sawthorn oak tree by using a control sprayer. […] Then, benzyl alcohol was sprayed one time by using a test liquid sprayer. Next, the workers were observed up to 1 minute. With respect to 2-phenylethanol, 3-phenylpropanol, 1-phenyl-2-prpanol and benzyl acetate, the spray test to a Vespa mandarinia worker collecting a sawthorn oak sap was conducted in the same condition.

The test system of the next data set is Apis mellifera worker. The following applies: in vivo. How it is done:
The experiment involving a Apis mellifera worker which was sucking nectar from a flower of Abelia planted at a bank of Noda pond located at Fuseishi-cho, Takamatsu City, Kagawa Prefecture was conducted on Jul. 22 to 24, 2015.
With respect to the experimental condition, first, distilled water was sprayed once on the worker which was sucking nectar or moving from a flower to a flower by using a sprayer, and then the inventors observed the behavior for 30 seconds. Next, benzyl alcohol, 2-phenylethanol or benzyl acetate was sprayed once on the same worker by using the sprayer having the same mass and the same volume, and then the inventors observed the behavior up to 30 seconds. The test liquid was judged to be “effective” in the case where the Apis mellifera worker on which the test liquid was sprayed did different action than normal activity to visit a flower during the observation time.

Molecules are shown by their SMILES.

In the case of `CC(O)Cc1ccccc1` (centres unmarked) [1-Phenyl-2-propanol, 1-phenyl-2-propanol], in the data set on Vespa mandarinia worker, the “behavior of workers after spraying” value is recorded as “flew away from the sap bleeding part”, the “Number of worker Effective” value was 10/10 and the “Number of worker No response” value is on record as 0/10.
Regarding `OCCCc1ccccc1` [3-Phenylpropanol, 3-phenylpropanol], in the data set on Vespa mandarinia worker, the “behavior of workers after spraying” value is on record as “flew away from the sap bleeding part”, the “Number of worker Effective” value is 10/10 and the “Number of worker No response” value is listed as 0/10.
`CC(=O)OCc1ccccc1` [Benzyl acetate, benzyl acetate]: in the data set on Vespa mandarinia worker, the “behavior of workers after spraying” value is listed as “flew away from the sap bleeding part”, the “Number of worker Effective” value is given as 10/10 and the “Number of worker No response” value is 0/10. In the data set with Apis mellifera worker, the “Number of worker Effective” value is recorded as 0/10 and the “Number of worker No response” value is recorded as 10/10.

The values are drawn from patent US11470844B2, “Vespidae wasp repellent” (KINP CO., LTD, priority 2015, dated 2022).
